Measured values: patent publication US7575909B2, “Oxidoreductase from pichia capsulata” (IEP GmbH, priority 2003, dated 2009)

Key:
[1] = tested on: oxidoreductase according to the invention; test: Enantiomeric excess of the alcohol formed from selected substrates (GC); type: biochemical, Pichia capsulata; conditions: 24 h
Method: For the determination of the ee-value, the following reaction batch was used for selected substrates.
The batches for ee-determination were extracted with chloroform after 24 h and the enantiomeric excess of the resulting alcohol was determined via GC.

[2] = tested on: oxidoreductase according to the invention; test: Substrate spectrum (relative enzyme activity with different substrates); type: biochemical, Pichia capsulata; conditions: activity with ethyl-4-chloroacetoacetate = 100%
Method: Incubation lasted for about 2 to 3 min, thereupon 100 μl of a substrate solution (100 mM ethyl-4-chloro-3-oxobutanoate were added.
The substrate spectrum of the oxidoreductase according to the invention was determined by measuring the enzyme activity with a number of ketones, oxoacids and esters thereof. […] The activity with ethyl-4-chloroacetoacetate was equalled to 100% and all the other substrates were set in relation thereto.

[3] = tested on: recombinant oxidoreductase from Pichia capsulata; test: Preparative conversions with recombinant oxidoreductase; type: biochemical; conditions: for share of the substrate used that was reduced: after 24 h at room temperature, isopropanol as cosubstrate, NAD; for enantiomeric excess of the recovered product: preparative batch, 24 h at room temperature
Method: For the preparative batch, a mixture of […] of a buffer (100 mM TEA, pH=7, 1 mM ZnCl2, 10% glycerol), 4 1 isopropanol, 4 1 4-chloroacetoacetate, 4 g NAD and 3.6 million U of recombinant oxidoreductase from Pichia capsulata was incubated for 24 h at room temperature under constant mixing. […] Subsequently, the reaction mixture was extracted with ethyl acetate, the solvent was removed by means of a rotary evaporator and the raw product was distilled.
For the preparative batch, a mixture of 164 ml of a buffer (100 mM TEA, pH=7, 1 mM ZnCl2, 20% glycerol), 16 ml isopropanol, 20 g 2-chloro-1-(3-chlorophenyl)ethane-1-one dissolved in 20 ml methyl tert-butyl ether (MTBE), 10 mg NAD and 20,000 U of recombinant oxidoreductase from Pichia capsulata was incubated for 24 h at room temperature under constant mixing. […] Subsequently, the reaction mixture was extracted with ethyl acetate, and the solvent was removed using the rotary evaporator.

Row | SMILES | Stereoselectivity ([1]; S-alcohol in excess) | Relative activity % [2] | further results
1 | CCOC(=O)CC(C)=O [Ethyl acetoacetate] | 99% S | 100% | 
2 | COC(=O)CCCCC(=O)CC(=O)OC [Dimethyl-3-oxo-1,8-octandioic acid] |  | 3.5% | 
3 | CCCCCC(=O)CC [3-Octanone] |  | 30% | 
4 | CCOC(=O)C(=O)c1ccccc1 [Ethyl phenyl glyoxylate] |  | 5.2% | Stereoselectivity ([1]; R-alcohol in excess): 100% R
5 | CCOC(=O)CC(=O)CC [Ethyl-3 oxovaleriate] |  | 67% | 
6 | CCOC(=O)CC(=O)CCl [Ethyl-4-chloroacetoacetate] |  | 100% | share of the substrate used that was reduced [3]: 99%; Stereoselectivity ([1]; R-alcohol in excess): 99% R
7 | O[C@@H](CCl)c1cccc(Cl)c1 [(R)-2-chloro-1-(3-chlorophenyl)ethane-1-ol] |  |  | enantiomeric excess of the recovered product [3]: 100%
8 | CCOC(=O)C(=O)CCc1ccccc1 [Ethyl-2-oxo-4-phenylbutanoic acid] | 95% S | 76% | 
9 | CCOC(=O)C(C)=O [Ethyl pyruvate] | 100% S | 10% | 
10 | CC(=O)Cc1ccccc1 [1-Phenyl-2-propanone] | 97% S | 24% | 
11 | O=C(O)C(=O)Cc1ccccc1 [2-Oxo-3-phenyl propionic acid] |  | 0% | 
12 | COC(=O)CC(C)=O [Methyl acetoacetate] | 97% S | 150% | 
13 | CC(=O)CCO [4-Hydroxy-2-butanone] | 90% S | 99% | 
14 | CCOC(=O)CCCCC(=O)CCCl [Ethyl-8-chloro-6-oxooctanoic acid] |  | 20% | Stereoselectivity ([1]; R-alcohol in excess): 100% R
15 | CCC(=O)C(=O)O [2-Oxobutanoic acid] |  | 0% | 
16 | CCC(C)=O [2-Butanone] | 50% S | 99% | 
17 | CCCCCCCC(=O)c1ccccc1 [Caprylophenone] |  | 0% | 
18 | CCCC(=O)C(=O)O [2-Oxovaleric acid] |  | 0% | 
19 | CCCCCCC(C)=O [2-Octanone] | 100% S | 88% | 
20 | CCCC(=O)C(=O)OCC [Ethyl-2-oxovaleriate] | 97% S | 41% | 
21 | CC(=O)c1ccccc1 [Acetophenone] |  | 4% | 
22 | CCOC(=O)C[C@@H](O)CCl [ethyl-(R)-4-chloro-3-hydroxybutanoate] |  |  | enantiomeric excess of the recovered product [3]: 99%
23 | O=C(CCl)c1cccc(Cl)c1 [2-Chloro-1-(3-chlorophenyl)ethane-1-one] |  | 21% | share of the substrate used that was reduced [3]: 96%; Stereoselectivity ([1]; R-alcohol in excess): 100% R
